Patent publication US20120324604A1, “PESTICIDAL MIXTURES CONTAINING ISOXAZOLINE DERIVATIVES AND A FUNGICIDE” (priority 2010, published 2012)

Columns and labels:
Format in all cases: cell-based
Rhizoctonia solani = Rhizoctonia solani (Foot Rot, Damping-Off) growth inhibition, microtiter plate, photometric
Method: Rhizoctonia solani (Foot Rot, Damping-Off):
Mycelial fragments of the fungus from cryogenic storage were directly mixed into nutrient broth (potato dextrose broth). After placing a (DMSO) solution of the test compounds into a microtiter plate (96-well format) the nutrient broth containing the fungal spores was added.

Fusarium culmorum = Fusarium culmorum (Root Rot) growth inhibition, microtiter plate, photometric
Method: Fusarium culmorum (Root Rot):
(§1) Conidia of the fungus from cryogenic storage were directly mixed into nutrient broth (potato dextrose broth). After placing a (DMSO) solution of the test compounds into a microtiter plate (96-well format) the nutrient broth containing the fungal spores was added.

Pythium ultimum = Pythium ultimum (Damping Off) growth inhibition, microtiter plate, photometric
Method: Pythium ultimum (Damping Off):
Mycelial fragments of the fungus, prepared from a fresh liquid culture, were directly mixed into nutrient broth (potato dextrose broth). After placing a (DMSO) solution of the test compounds into a microtiter plate (96-well format) the nutrient broth containing the fungal spores was added.

[1] = tested on: Mycosphaerella arachidis (syn. Cercospora arachidicola); assay: Mycosphaerella arachidis (Brown Leaf Spot of Groundnut) growth inhibition, microtiter plate, photometric; details: alone
Method: Mycosphaerella arachidis (syn. Cercospora arachidicola), Brown Leaf Spot of Groundnut (Peanut):
as §1

Septoria tritici = Septoria tritici (Leaf Blotch) growth inhibition, microtiter plate, photometric; details: A5 alone
Method: Septoria tritici (Leaf Blotch):
as §1

Gaeumannomyces graminis = Gaeumannomyces graminis growth inhibition, microtiter plate, photometric
Method: Mycelial fragments of the fungus from cryogenic storage were directly mixed into nutrient broth (potato dextrose broth). After placing a (DMSO) solution of the test compounds into a microliter plate (96-well format) the nutrient broth containing the fungal spores was added.

[2] = tested on: Glomerella lagenarium (syn. Colletotrichum lagenarium); assay: Glomerella lagenarium (Anthracnose of Cucurbits) growth inhibition, microtiter plate, photometric; details: alone
Method: Glomerella lagenarium (syn. Colletotrichum lagenarium), Anthracnose of Cucurbits:
as §1

[3] = single compound at 0.0390625 ppm AI
[4] = single compound at 0.078125 ppm AI
[5] = single compound at 0.15625 ppm AI
[6] = single compound at 0.3125 ppm AI
[7] = single compound at 0.625 ppm AI

Cc1cc(C2=NOC(c3cc(Cl)cc(Cl)c3)(C(F)(F)F)C2)ccc1C(=O)NC1CSC1 (racemic) [A5]
0%: AVERAGE DEAD IN % (Rhizoctonia solani; applied alone, 0.0390625 ppm AI) | AVERAGE DEAD IN % (Rhizoctonia solani; applied alone, 0.078125 ppm AI) | AVERAGE DEAD IN % (Rhizoctonia solani; applied alone, 0.15625 ppm AI) | AVERAGE DEAD IN % (Rhizoctonia solani; applied alone, 0.3125 ppm AI) | AVERAGE DEAD IN % (Rhizoctonia solani; applied alone, 0.625 ppm AI) | AVERAGE DEAD IN % (Rhizoctonia solani; applied alone, 1.25 ppm AI) | AVERAGE DEAD IN % (Rhizoctonia solani; applied alone, 2.5 ppm AI) | AVERAGE DEAD IN % (Rhizoctonia solani; applied alone, 5 ppm AI) | AVERAGE DEAD IN % (Rhizoctonia solani; applied alone, 10 ppm AI) | AVERAGE DEAD IN % (Rhizoctonia solani; applied alone, 20 ppm AI) | AVERAGE DEAD IN % (Rhizoctonia solani; single compound at 2.5 ppm AI) | AVERAGE DEAD IN % (Fusarium culmorum; alone, 1.25 PPM AI) | AVERAGE DEAD IN % (Fusarium culmorum; alone, 2.5 PPM AI) | AVERAGE DEAD IN % (Fusarium culmorum; alone, 5 PPM AI) | AVERAGE DEAD IN % (Fusarium culmorum; alone, 10 PPM AI) | AVERAGE DEAD IN % (Fusarium culmorum; alone, 20 PPM AI) | AVERAGE DEAD IN % (Fusarium culmorum; single compound, 0.625 PPM AI, 48 hrs, 24° C.) | AVERAGE DEAD IN % (Fusarium culmorum; single compound, 1.25 PPM AI, 48 hrs, 24° C.) | AVERAGE DEAD IN % (Fusarium culmorum; single compound, 2.5 PPM AI, 48 hrs, 24° C.) | AVERAGE DEAD IN % (Fusarium culmorum; single compound, 5 PPM AI, 48 hrs, 24° C.) | AVERAGE DEAD IN % (Fusarium culmorum; single compound, 10 PPM AI, 48 hrs, 24° C.) | AVERAGE DEAD IN % (Fusarium culmorum; single compound, 20 PPM AI, 48 hrs, 24° C.) | AVERAGE DEAD IN % (Pythium ultimum; [3]) | AVERAGE DEAD IN % (Pythium ultimum; [4]) | AVERAGE DEAD IN % (Pythium ultimum; [5]) | AVERAGE DEAD IN % (Pythium ultimum; [6]) | AVERAGE DEAD IN % (Pythium ultimum; [7]) | AVERAGE DEAD IN % (Pythium ultimum; single compound at 1.25 ppm AI) | AVERAGE DEAD IN % (Pythium ultimum; single compound at 2.5 ppm AI) | AVERAGE DEAD IN % (Pythium ultimum; single compound at 5 ppm AI) | AVERAGE DEAD IN % (Pythium ultimum; single compound at 10 ppm AI) | AVERAGE DEAD IN % (Pythium ultimum; single compound at 20 ppm AI) | AVERAGE DEAD IN % ([1]; 0.078125 ppm AI) | AVERAGE DEAD IN % ([1]; 0.15625 ppm AI) | AVERAGE DEAD IN % ([1]; 0.3125 ppm AI) | AVERAGE DEAD IN % ([1]; 0.625 ppm AI) | AVERAGE DEAD IN % ([1]; 1.25 ppm AI) | AVERAGE DEAD IN % ([1]; 2.5 ppm AI) | AVERAGE DEAD IN % ([1]; 5 ppm AI) | AVERAGE DEAD IN % ([1]; 10 ppm AI) | AVERAGE DEAD IN % ([1]; 20 ppm AI) | AVERAGE DEAD IN % ([1]; 0.0390625 PPM AI) | AVERAGE DEAD IN % ([1]; 0.078125 PPM AI) | AVERAGE DEAD IN % ([1]; 0.15625 PPM AI) | AVERAGE DEAD IN % ([1]; 0.3125 PPM AI) | AVERAGE DEAD IN % ([1]; 0.625 PPM AI) | AVERAGE DEAD IN % ([1]; 1.25 PPM AI) | AVERAGE DEAD IN % ([1]; 2.5 PPM AI) | AVERAGE DEAD IN % ([1]; 5 PPM AI) | AVERAGE DEAD IN % ([1]; 10 PPM AI) | AVERAGE DEAD IN % A5 (Septoria tritici; 0.0390625 ppm AI) | AVERAGE DEAD IN % A5 (Septoria tritici; 0.078125 ppm AI) | AVERAGE DEAD IN % A5 (Septoria tritici; 0.15625 ppm AI) | AVERAGE DEAD IN % A5 (Septoria tritici; 0.3125 ppm AI) | AVERAGE DEAD IN % A5 (Septoria tritici; 0.625 ppm AI) | AVERAGE DEAD IN % A5 (Septoria tritici; 1.25 ppm AI) | AVERAGE DEAD IN % A5 (Septoria tritici; 2.5 ppm AI) | AVERAGE DEAD IN % A5 (Septoria tritici; 5 ppm AI) | AVERAGE DEAD IN % A5 (Septoria tritici; 10 ppm AI) | AVERAGE DEAD IN % (Gaeumannomyces graminis; [3]) | AVERAGE DEAD IN % (Gaeumannomyces graminis; [4]) | AVERAGE DEAD IN % (Gaeumannomyces graminis; [5]) | AVERAGE DEAD IN % (Gaeumannomyces graminis; [6]) | AVERAGE DEAD IN % (Gaeumannomyces graminis; [7]) | AVERAGE DEAD IN % (Gaeumannomyces graminis; single compound at 1.25 ppm AI) | AVERAGE DEAD IN % (Gaeumannomyces graminis; single compound at 2.5 ppm AI) | AVERAGE DEAD IN % (Gaeumannomyces graminis; single compound at 5 ppm AI) | AVERAGE DEAD IN % (Gaeumannomyces graminis; single compound at 10 ppm AI) | AVERAGE DEAD IN % (Gaeumannomyces graminis; single compound at 20 ppm AI) | AVERAGE DEAD IN % ([2]; 0.0390625 ppm AI) | AVERAGE DEAD IN % ([2]; 0.078125 ppm AI) | AVERAGE DEAD IN % ([2]; 0.15625 ppm AI) | AVERAGE DEAD IN % ([2]; 0.3125 ppm AI) | AVERAGE DEAD IN % ([2]; 0.625 ppm AI) | AVERAGE DEAD IN % ([2]; 1.25 ppm AI) | AVERAGE DEAD IN % ([2]; 2.5 ppm AI) | AVERAGE DEAD IN % ([2]; 5 ppm AI) | AVERAGE DEAD IN % ([2]; 10 ppm AI) | AVERAGE DEAD IN % ([2]; 20 ppm AI)
